# Laboratory results from US9434743B2, “Indazole derivatives” (TAKEDA PHARMACEUTICAL COMPANY LIMITED, priority 2012, dated 2016).
# Assays:
# human MetAP2 enzyme [1] = target: T1, human MetAP2 enzyme (Homo sapiens, UniProt P50579); assay: MetAP2 enzyme assay, enzyme complexed with cobalt ions; conditions: MetAP2 Co pIC50, MetAP2 enzyme complexed with cobalt ions; Met-AMC substrate at Km
# human MetAP2 enzyme [2] = target: T1, human MetAP2 enzyme; assay: MetAP2 enzyme assay, enzyme complexed with manganese ions; conditions: MetAP2 Mn pIC50, MetAP2 enzyme complexed with manganese ions; Met-AMC substrate at Km
# T1 sequence (P50579 whole entry): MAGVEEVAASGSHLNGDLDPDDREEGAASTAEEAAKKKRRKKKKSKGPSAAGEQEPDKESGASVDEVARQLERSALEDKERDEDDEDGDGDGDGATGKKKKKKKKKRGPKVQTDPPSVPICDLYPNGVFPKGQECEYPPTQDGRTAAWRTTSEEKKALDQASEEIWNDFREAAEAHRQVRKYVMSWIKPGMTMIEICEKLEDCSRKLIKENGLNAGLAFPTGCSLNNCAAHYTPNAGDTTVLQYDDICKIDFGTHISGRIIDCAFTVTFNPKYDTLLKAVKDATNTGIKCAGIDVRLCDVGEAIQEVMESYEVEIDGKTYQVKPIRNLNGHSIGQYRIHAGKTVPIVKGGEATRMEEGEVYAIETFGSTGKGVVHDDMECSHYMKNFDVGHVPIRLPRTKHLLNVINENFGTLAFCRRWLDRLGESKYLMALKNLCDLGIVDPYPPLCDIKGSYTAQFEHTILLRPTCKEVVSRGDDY
Compound,IC50 (human MetAP2 enzyme [1]),IC50 (human MetAP2 enzyme [2])
"Fc1c[nH]c2ncc(-c3cc(C(F)(F)F)cc4[nH]ncc34)cc12 [Example 339, 4-(3-fluoro-1H-pyrrolo[2,3-b]pyridin-5-yl)-6-(trifluoromethyl)-1H-indazole]",126 nM,20 nM
"COCc1ccc(-c2cc(C(F)(F)F)cc3[nH]ncc23)cc1 [Example 48, 4-(4-(methoxymethyl)phenyl)-6-(trifluoromethyl)-1H-indazole]",50.1 nM,5.01 nM
"O=c1[nH]c2cc(-c3cc(C(F)(F)F)cc4[nH]ncc34)cnc2[nH]1 [Example 241, 6-(6-(trifluoromethyl)-1H-indazol-4-yl)-1H-imidazo[4,5-b]pyridin-2(3H)-one]",15.8 nM,2 nM
"Fc1cnc2[nH]ccc2c1-c1cc(C(F)(F)F)cc2[nH]ncc12 [Example 66, 4-(5-fluoro-1H-pyrrolo[2,3-b]pyridin-4-yl)-6-(trifluoromethyl)-1H-indazole]",79.4 nM,15.8 nM
"Cc1ccc(-c2cc(C(F)(F)F)cc3[nH]ncc23)c(C)n1 [Example 215, 4-(2,6-dimethylpyridin-3-yl)-6-(trifluoromethyl)-1H-indazole]",50.1 nM,7.94 nM
"CNS(=O)(=O)c1cccc(-c2cc(C(F)(F)F)cc3[nH]ncc23)c1 [Example 104, N-methyl-3-(6-(trifluoromethyl)-1H-indazol-4-yl)benzenesulfonamide]",316 nM,39.8 nM
"NS(=O)(=O)c1cncc(-c2cc(C(F)(F)F)cc3[nH]ncc23)c1 [Example 346, 5-(6-(trifluoromethyl)-1H-indazol-4-yl)pyridine-3-sulfonamide]",100 nM,5.01 nM
"FC(F)(F)c1cc(-c2ccncc2Cl)c2cn[nH]c2c1 [Example 49, 4-(3-chloropyridin-4-yl)-6-(trifluoromethyl)-1H-indazole]",200 nM,15.8 nM
"COc1cccc(-c2cc(C(F)(F)F)cc3[nH]ncc23)n1 [Example 91, 4-(6-methoxypyridin-2-yl)-6-(trifluoromethyl)-1H-indazole]",200 nM,6.31 nM
"O=S(=O)(c1ccc(-c2cc(C(F)(F)F)cc3[nH]ncc23)cc1)n1cccn1 [Example 223, 4-(4-(1H-pyrazol-1-ylsulfonyl)phenyl)-6-(trifluoromethyl)-1H-indazole]",126 nM,7.94 nM
"O=C(NCCO)c1ccc(F)c(-c2cc(C(F)(F)F)cc3[nH]ncc23)c1 [Example 360, 4-fluoro-N-(2-hydroxyethyl)-3-(6-(trifluoromethyl)-1H-indazol-4-yl)benzamide]",39.8 nM,7.94 nM
"Cc1n[nH]c(C)c1-c1cc(C(F)(F)F)cc2[nH]ncc12 [Example 83, 4-(3,5-dimethyl-1H-pyrazol-4-yl)-6-(trifluoromethyl)-1H-indazole]",39.8 nM,20 nM
"Oc1cccnc1-c1cc(C(F)(F)F)cc2[nH]ncc12 [Example 214, 2-(6-(trifluoromethyl)-1H-indazol-4-yl)pyridin-3-ol]",501 nM,15.8 nM
"NC(=O)c1cc(-c2cc(C(F)(F)F)cc3[nH]ncc23)ccc1Cl [Example 63, 2-chloro-5-(6-(trifluoromethyl)-1H-indazol-4-yl)benzamide]",63.1 nM,15.8 nM
"O=C1Cc2cc(-c3cc(C(F)(F)F)cc4[nH]ncc34)cnc2N1 [Example 238, 5-(6-(trifluoromethyl)-1H-indazol-4-yl)-1H-pyrrolo[2,3-b]pyridin-2(3H)-one]",39.8 nM,6.31 nM
"COCc1[nH]nc(C)c1-c1cc(C(F)(F)F)cc2[nH]ncc12 [Example 323, 4-(5-(methoxymethyl)-3-methyl-1H-pyrazol-4-yl)-6-(trifluoromethyl)-1H-indazole]",10 nM,12.6 nM
"O=C(NCC(F)F)c1c[nH]c(=O)c(-c2cc(C(F)(F)F)cc3[nH]ncc23)c1 [Example 338, N-(2,2-difluoroethyl)-6-oxo-5-(6-(trifluoromethyl)-1H-indazol-4-yl)-1,6-dihydropyridine-3-carboxamide]",398 nM,10 nM
"Cn1cc(-c2cc(C(F)(F)F)cc3[nH]ncc23)c(=O)n(CC(=O)N2CCOCC2)c1=O [Example 310, 1-methyl-3-(2-morpholino-2-oxoethyl)-5-(6-(trifluoromethyl)-1H-indazol-4-yl)pyrimidine-2,4(1H,3H)-dione]",1000 nM,20 nM
"CCN(CC)C(=O)c1cccc(-c2cc(C(F)(F)F)cc3[nH]ncc23)c1 [Example 32, N,N-diethyl-3-(6-(trifluoromethyl)-1H-indazol-4-yl)benzamide]",39.8 nM,20 nM
"Cn1cc(-c2cc(C(F)(F)F)cc3[nH]ncc23)ccc1=O [Example 373, 1-methyl-5-(6-(trifluoromethyl)-1H-indazol-4-yl)pyridin-2(1H)-one]",126 nM,6.31 nM

Compound,IC50 (human MetAP2 enzyme [1]),IC50 (human MetAP2 enzyme [2])
"Cc1nc(N2CCN[C@H](C)C2)ccc1-c1cc(C(F)(F)F)cc2[nH]ncc12 [Example 414, (R)-4-(2-methyl-6-(3-methylpiperazin-1-yl)pyridin-3-yl)-6-(trifluoromethyl)-1H-indazole]",10 nM,3.98 nM
"NS(=O)(=O)c1cccc(-c2cc(C(F)(F)F)cc3[nH]ncc23)c1 [Example 329, 3-(6-(trifluoromethyl)-1H-indazol-4-yl)benzenesulfonamide]",39.8 nM,15.8 nM
"Cc1nn(CCC#N)c(C)c1-c1cc(C(F)(F)F)cc2[nH]ncc12 [Example 174, 3-(3,5-dimethyl-4-(6-(trifluoromethyl)-1H-indazol-4-yl)-1H-pyrazol-1-yl)propanenitrile]",63.1 nM,12.6 nM
"O=C(c1ncc(-c2cc(C(F)(F)F)cc3[nH]ncc23)cn1)N1CCOCC1 [Example 294, morpholino(5-(6-(trifluoromethyl)-1H-indazol-4-yl)pyrimidin-2-yl)methanone]",1580 nM,31.6 nM
"O=C(c1ccc(-c2cc(C(F)(F)F)cc3[nH]ncc23)cn1)N1CCOCC1 [Example 262, morpholino(5-(6-(trifluoromethyl)-1H-indazol-4-yl)pyridin-2-yl)methanone]",200 nM,10 nM
"OCc1ccc(Cl)c(-c2cc(C(F)(F)F)cc3[nH]ncc23)c1 [Example 128, (4-chloro-3-(6-(trifluoromethyl)-1H-indazol-4-yl)phenyl)methanol]",39.8 nM,12.6 nM
"CNC(=O)c1ccc(OC)c(-c2cc(C(F)(F)F)cc3[nH]ncc23)c1 [Example 181, 4-methoxy-N-methyl-3-(6-(trifluoromethyl)-1H-indazol-4-yl)benzamide]",15.8 nM,5.01 nM
"COCCOc1ccc(-c2cc(C(F)(F)F)cc3[nH]ncc23)c(C)n1 [Example 362, 4-(6-(2-methoxyethoxy)-2-methylpyridin-3-yl)-6-(trifluoromethyl)-1H-indazole]",39.8 nM,15.8 nM
"Cc1nn(C)cc1-c1cc(C(F)(F)F)cc2[nH]ncc12 [Example 39, 4-(1,3-dimethyl-1H-pyrazol-4-yl)-6-(trifluoromethyl)-1H-indazole]",31.6 nM,12.6 nM
"COc1ncc(-c2cc(C(F)(F)F)cc3[nH]ncc23)c2cc[nH]c12 [Example 291, 4-(7-methoxy-1H-pyrrolo[2,3-c]pyridin-4-yl)-6-(trifluoromethyl)-1H-indazole]",63.1 nM,10 nM
"Cc1nn(C)c(C)c1-c1cc(C(F)(F)F)cc2[nH]ncc12 [Example 164, 6-(trifluoromethyl)-4-(1,3,5-trimethyl-1H-pyrazol-4-yl)-1H-indazole]",15.8 nM,3.98 nM
"COc1ncc(-c2cc(C(F)(F)F)cc3[nH]ncc23)cc1C(=O)NCCO [Example 285, N-(2-hydroxyethyl)-2-methoxy-5-(6-(trifluoromethyl)-1H-indazol-4-yl)nicotinamide]",50.1 nM,3.98 nM
"O=C(NC1CC1)c1ccc(-c2cc(C(F)(F)F)cc3[nH]ncc23)cc1 [Example 35, N-cyclopropyl-4-(6-(trifluoromethyl)-1H-indazol-4-yl)benzamide]",25.1 nM,7.94 nM
"Nc1ncc(Cl)cc1-c1cc(C(F)(F)F)cc2[nH]ncc12 [Example 137, 5-chloro-3-(6-(trifluoromethyl)-1H-indazol-4-yl)pyridin-2-amine]",158 nM,10 nM
"COc1cccnc1-c1cc(C(F)(F)F)cc2[nH]ncc12 [Example 213, 4-(3-methoxypyridin-2-yl)-6-(trifluoromethyl)-1H-indazole]",631 nM,79.4 nM
"COc1nc(Cl)ccc1-c1cc(C(F)(F)F)cc2[nH]ncc12 [Example 392, 4-(6-chloro-2-methoxypyridin-3-yl)-6-(trifluoromethyl)-1H-indazole]",200 nM,12.6 nM
"Cc1nn(CC(=O)NCCO)c(C)c1-c1cc(C(F)(F)F)cc2[nH]ncc12 [Example 386, 2-(3,5-dimethyl-4-(6-(trifluoromethyl)-1H-indazol-4-yl)-1H-pyrazol-1-yl)-N-(2-hydroxyethyl)acetamide]",63.1 nM,12.6 nM
"N#Cc1ccc(CO)c(-c2cc(C(F)(F)F)cc3[nH]ncc23)c1 [Example 140, 4-(hydroxymethyl)-3-(6-(trifluoromethyl)-1H-indazol-4-yl)benzonitrile]",31.6 nM,3.98 nM
"NC(=O)c1cc(-c2cc(C(F)(F)F)cc3[nH]ncc23)ccc1F [Example 110, 2-fluoro-5-(6-(trifluoromethyl)-1H-indazol-4-yl)benzamide]",63.1 nM,3.98 nM
"FC(F)(F)c1cc(-c2cnn(Cc3ccccn3)c2)c2cn[nH]c2c1 [Example 72, 4-(1-(pyridin-2-ylmethyl)-1H-pyrazol-4-yl)-6-(trifluoromethyl)-1H-indazole]",25.1 nM,2.51 nM
